Key:
[1] = target: Mu-type opioid receptor (Homo sapiens, UniProt P35372); assay: DRUGMATRIX: Opiate mu (OP3, MOP) radioligand binding (ligand: [3H] Diprenorphine); assay type: cell membranes, CHO-K1, Membrane; details: cho-k1; Not Active = under 50% inhibition at 10 µM
[2] = target: Kappa-type opioid receptor (Homo sapiens, UniProt P41145); assay: DRUGMATRIX: Opiate kappa (OP2, KOP) radioligand binding (ligand: [3H] Diprenorphine); assay type: cell membranes, HEK293, Membrane; details: hek293; Not Active = under 50% inhibition at 10 µM
Chain of Kappa-type opioid receptor (P41145 whole entry): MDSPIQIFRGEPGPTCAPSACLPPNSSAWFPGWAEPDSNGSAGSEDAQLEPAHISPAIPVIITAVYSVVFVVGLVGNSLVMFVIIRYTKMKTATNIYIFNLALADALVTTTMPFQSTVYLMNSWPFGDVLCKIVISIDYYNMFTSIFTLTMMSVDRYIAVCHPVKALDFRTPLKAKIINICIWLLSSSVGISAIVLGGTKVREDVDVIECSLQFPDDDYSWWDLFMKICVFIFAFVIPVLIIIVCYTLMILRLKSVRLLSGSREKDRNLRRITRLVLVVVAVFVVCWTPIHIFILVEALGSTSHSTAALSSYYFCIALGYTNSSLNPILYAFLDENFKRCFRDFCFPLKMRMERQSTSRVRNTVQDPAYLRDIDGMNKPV

[3] = target: Cytochrome P450 2C9 (Homo sapiens, UniProt P11712); details: bti-tn-5b1-4; also: in other assays of this panel Not Active means under 50% inhibition at 10 µM
Chain of Cytochrome P450 2C9 (P11712 whole entry): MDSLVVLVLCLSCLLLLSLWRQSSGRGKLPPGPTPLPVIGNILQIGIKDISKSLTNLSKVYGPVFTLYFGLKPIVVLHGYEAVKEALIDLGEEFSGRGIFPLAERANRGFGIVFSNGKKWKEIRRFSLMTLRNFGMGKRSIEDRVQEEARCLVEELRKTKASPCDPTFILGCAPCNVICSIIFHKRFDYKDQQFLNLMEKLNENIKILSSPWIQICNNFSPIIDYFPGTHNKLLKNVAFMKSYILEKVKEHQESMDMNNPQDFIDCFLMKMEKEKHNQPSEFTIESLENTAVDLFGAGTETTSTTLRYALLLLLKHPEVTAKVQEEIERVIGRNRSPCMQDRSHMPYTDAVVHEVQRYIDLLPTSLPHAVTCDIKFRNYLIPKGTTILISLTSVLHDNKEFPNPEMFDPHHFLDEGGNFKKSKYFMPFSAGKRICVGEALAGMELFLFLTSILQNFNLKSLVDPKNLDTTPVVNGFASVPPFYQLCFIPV

[4] = DRUGMATRIX: Platelet-Derived Growth Factor (PDGF) radioligand binding (ligand: [125I] PDGF); assay type: cell-based; details: nih3t3; Not Active = under 50% inhibition at 10 µM
[5] = target: Sodium-dependent noradrenaline transporter (Homo sapiens, UniProt P23975); assay: DRUGMATRIX: Norepinephrine Transporter radioligand binding (ligand: [125I] RTI-55); assay type: cell membranes, MDCK, Membrane; details: mdck; Not Active = under 50% inhibition at 10 µM
Chain of Sodium-dependent noradrenaline transporter (P23975 whole entry): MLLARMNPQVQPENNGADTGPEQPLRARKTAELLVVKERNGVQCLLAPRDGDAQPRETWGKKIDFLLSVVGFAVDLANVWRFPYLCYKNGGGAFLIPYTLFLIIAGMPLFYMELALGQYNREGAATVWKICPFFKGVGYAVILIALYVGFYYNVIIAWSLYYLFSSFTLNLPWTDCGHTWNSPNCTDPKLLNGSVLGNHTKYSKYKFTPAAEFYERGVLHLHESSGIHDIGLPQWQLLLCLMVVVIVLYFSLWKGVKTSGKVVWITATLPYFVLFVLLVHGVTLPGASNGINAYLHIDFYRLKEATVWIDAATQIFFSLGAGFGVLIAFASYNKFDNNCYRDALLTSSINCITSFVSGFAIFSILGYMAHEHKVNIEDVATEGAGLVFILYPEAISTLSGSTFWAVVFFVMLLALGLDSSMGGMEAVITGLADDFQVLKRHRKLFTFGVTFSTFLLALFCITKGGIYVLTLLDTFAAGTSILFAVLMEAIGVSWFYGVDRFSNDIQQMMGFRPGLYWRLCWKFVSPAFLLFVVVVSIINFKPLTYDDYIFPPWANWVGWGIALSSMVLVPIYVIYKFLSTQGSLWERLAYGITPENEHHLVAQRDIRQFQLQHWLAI

[6] = DRUGMATRIX: Glutamate, NMDA, Phencyclidine radioligand binding (ligand: [3H] TCP); assay type: cell membranes, Rattus norvegicus, Wistar, Cerebral cortex, Membrane; details: Not Active = under 50% inhibition at 10 µM
[7] = DRUGMATRIX: Glutamate, NMDA, Agonism radioligand binding (ligand: [3H] CGP-39653); assay type: cell membranes, Rattus norvegicus, Wistar, Cerebral cortex, Membrane; details: Not Active = under 50% inhibition at 10 µM
[8] = target: Sodium-dependent dopamine transporter (Homo sapiens, UniProt Q01959); assay: DRUGMATRIX: Dopamine Transporter radioligand binding (ligand: [125I] RTI-55); assay type: cell membranes, CHO-K1, Membrane; details: cho-k1; Not Active = under 50% inhibition at 10 µM
Chain of Sodium-dependent dopamine transporter (Q01959 whole entry): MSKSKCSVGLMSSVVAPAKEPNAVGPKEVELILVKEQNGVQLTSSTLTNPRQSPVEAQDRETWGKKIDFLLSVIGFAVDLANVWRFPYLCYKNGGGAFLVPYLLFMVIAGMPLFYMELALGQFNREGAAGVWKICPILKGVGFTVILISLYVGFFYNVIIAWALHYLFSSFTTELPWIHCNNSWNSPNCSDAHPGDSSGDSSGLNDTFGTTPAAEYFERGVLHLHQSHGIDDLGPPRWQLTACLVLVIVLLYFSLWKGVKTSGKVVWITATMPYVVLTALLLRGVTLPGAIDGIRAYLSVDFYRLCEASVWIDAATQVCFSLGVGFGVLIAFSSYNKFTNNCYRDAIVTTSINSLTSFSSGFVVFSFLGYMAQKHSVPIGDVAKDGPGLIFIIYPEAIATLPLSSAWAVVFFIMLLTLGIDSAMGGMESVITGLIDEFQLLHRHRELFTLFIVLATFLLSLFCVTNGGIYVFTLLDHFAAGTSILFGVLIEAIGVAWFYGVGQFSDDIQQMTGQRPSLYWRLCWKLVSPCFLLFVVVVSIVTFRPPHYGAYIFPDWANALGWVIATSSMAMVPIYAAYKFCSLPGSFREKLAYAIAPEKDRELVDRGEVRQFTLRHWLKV

[9] = target: D(1A) dopamine receptor (Homo sapiens, UniProt P21728); assay: DRUGMATRIX: Dopamine D1 radioligand binding (ligand: [3H] SCH-23390); assay type: cell membranes, CHO, Membrane; details: cho; Not Active = under 50% inhibition at 10 µM
Chain of D(1A) dopamine receptor (P21728 whole entry): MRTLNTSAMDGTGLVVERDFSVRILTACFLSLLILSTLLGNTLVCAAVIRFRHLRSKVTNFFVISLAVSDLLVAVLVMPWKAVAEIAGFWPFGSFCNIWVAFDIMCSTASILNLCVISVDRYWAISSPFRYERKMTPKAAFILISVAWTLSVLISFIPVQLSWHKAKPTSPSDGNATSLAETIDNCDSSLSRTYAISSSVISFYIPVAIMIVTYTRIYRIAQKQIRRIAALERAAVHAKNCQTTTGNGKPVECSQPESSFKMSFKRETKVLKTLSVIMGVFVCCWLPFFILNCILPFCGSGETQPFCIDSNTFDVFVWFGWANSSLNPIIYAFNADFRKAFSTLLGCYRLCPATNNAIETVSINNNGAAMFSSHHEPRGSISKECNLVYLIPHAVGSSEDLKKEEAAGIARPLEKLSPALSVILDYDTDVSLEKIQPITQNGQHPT

Chain of Mu-type opioid receptor (P35372 whole entry): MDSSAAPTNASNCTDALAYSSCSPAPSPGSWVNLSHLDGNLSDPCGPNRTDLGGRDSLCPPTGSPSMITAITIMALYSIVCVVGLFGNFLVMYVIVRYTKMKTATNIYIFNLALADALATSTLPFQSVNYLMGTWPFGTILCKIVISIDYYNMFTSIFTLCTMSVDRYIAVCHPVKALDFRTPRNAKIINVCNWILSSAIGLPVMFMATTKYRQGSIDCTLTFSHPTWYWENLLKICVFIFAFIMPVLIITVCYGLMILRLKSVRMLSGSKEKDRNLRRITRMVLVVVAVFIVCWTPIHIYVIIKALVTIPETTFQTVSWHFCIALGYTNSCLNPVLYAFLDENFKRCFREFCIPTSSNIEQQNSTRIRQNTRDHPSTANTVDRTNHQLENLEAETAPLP

CC1CCC(NC(=O)N(CCCl)N=O)CC1 (stereo not drawn) [SEMUSTINE]
Not Active: IC50 [1] | IC50 [2] | IC50 [3] | Ki [3] | IC50 [4] | Ki [4] | IC50 [5] | IC50 [6] | Ki [6] | IC50 [7] | Ki [7] | IC50 [8] | IC50 [9]

Nc1ccc(S(=O)(=O)NC(=O)c2ccccc2)cc1 [SULFABENZAMIDE]
Not Active: IC50 [1] | IC50 [2] | IC50 [3] | Ki [3] | IC50 [4] | Ki [4] | IC50 [5] | IC50 [6] | Ki [6] | IC50 [7] | Ki [7] | IC50 [8] | IC50 [9]

O=c1[nH]c(=O)n(C2CCCO2)cc1F (stereo not drawn) [TEGAFUR]
Not Active: IC50 [1] | IC50 [2] | IC50 [3] | Ki [3] | IC50 [4] | Ki [4] | IC50 [5] | IC50 [6] | Ki [6] | IC50 [7] | Ki [7] | IC50 [8] | IC50 [9]

CC(=N)S [THIOACETAMIDE]
Not Active: IC50 [1] | IC50 [2] | IC50 [3] | Ki [3] | IC50 [4] | Ki [4] | IC50 [5] | IC50 [6] | Ki [6] | IC50 [7] | Ki [7] | IC50 [8] | IC50 [9]

Cc1ccc(C(=O)c2ccc(CC(=O)O)n2C)cc1 [TOLMETIN]
Not Active: IC50 [1] | IC50 [2] | IC50 [3] | Ki [3] | IC50 [4] | Ki [4] | IC50 [5] | IC50 [6] | Ki [6] | IC50 [7] | Ki [7] | IC50 [8] | IC50 [9]

CC(=O)OCC(COC(C)=O)OC(C)=O [TRIACETIN]
Not Active: IC50 [1] | IC50 [2] | IC50 [3] | Ki [3] | IC50 [4] | Ki [4] | IC50 [5] | IC50 [6] | Ki [6] | IC50 [7] | Ki [7] | IC50 [8] | IC50 [9]

Reference: ChEMBL document CHEMBL1909046, “DrugMatrix in vitro pharmacology data”
